Measured values: patent US20110214196A1, “DEVELOPMENT OF HERBICIDE-RESISTANT GRASS SPECIES” (University of Georgia Research Foundation, priority 2008, published 2011)

What was measured:
[1] = test system: Large crabgrass (Digitaria sanguinalis) F2; experiment: Large crabgrass dose response study, F2 from self-pollinated surviving plants; assay type: in vivo
Experimental: (§1) Plants were grown from seed collected from a turfgrass sod farm near where sethoxydim had been continuously used for twelve years. Seeds were planted in 250 mL styrofoam cups with a potting mixture of pure sand in a glasshouse with supplemental lighting (300 uE/m2/s) and 30/25 temperature. Plants were watered once daily and fertilized once a week. Large crabgrass plants were treated with herbicides when 3-5 cm tall in a dose response study. Four herbicides (sethoxydim, fluazifop, clethodim, and pinoxaden) were applied at […]. Plant injury was observed 7 and 14 DAT. The experimental design consisted of a randomized complete block design with three replications. The experiment was replicated in time.
In response to all four herbicides, the plants initially illutrated typical ACCase symptomology, but recovered in 7-14 days after treatment (DAT). […] Seeds from self-pollinated surviving large crabgrass plants were collected and analyzed using the same dose response design as state before. […] The ED50 was approximately 10 times greater for the resistant (R) population than that for the wild type (S) population.

[2] = test system: Large crabgrass (Digitaria sanguinalis); experiment: Large crabgrass dose response study, plants from sod farm seed; assay type: in vivo; conditions: for resistance or susceptibility of this population of large crabgrass: conclusion from ED50 values; for effective dose required to cause 50% injury (ED50): large crabgrass grown from sod farm seed, treated when 3-5 cm tall
Experimental: as §1

Row | Compound | effective dose required to cause 50% injury (ED50) [1] [g ai/ha] | resistance or susceptibility of this population of large crabgrass [2] | effective dose required to cause 50% injury (ED50) [2] [g ai/ha]
1 | CCSC(C)CC1CC(=O)C(/C(CC)=N/OC/C=C/Cl)=C(O)C1 (racemic) [clethodim, (E,E)-(±)-2-[1-[[(3-chloro-2-propenyl)oxy]imino]propyl]-5-[2-(ethylthio)propyl]-3-hydroxy-2-cyclohexen-1-one] | 28±22 | susceptible | 51±4
2 | CCc1cc(C)cc(CC)c1-c1c(OC(=O)C(C)(C)C)n2n(c1=O)CCOCC2 [pinoxaden] | 131±44 | resistant | 168±29
